Measured values as given in patent US12036200B2, “Bismuth-thiol compositions and methods for treating wounds” (Microbion Corporation, priority 2018, dated 2024).
“Also recorded” adds a separate entry of the source.

Tests used:
[1] = tested on: subjects with a moderate to severe DFI; assay: Phase 1b/2a DFI study (Example 7): biofilm score; type: in vivo, human; conditions: ME Population, BisEDT dose groups vs placebo
Excerpt: Biofilm Response: The distribution of absolute scores at the EOT and TOC visits are descriptively summarized using counts and percentages by treatment group. Treatments were compared using the Cochran Mantel Haenszel mean score test statistic, and the p-value is presented. Additionally, shift tables showing individual subject changes from baseline to EOT and TOC visits are presented. Analyses are presented for the ME Population.
Biofilm response: The following categories were used: score 0, no bacteria observed; 1, single individual cells; 2, small micro-colonies (˜10 cells); 3, large micro-colonies (˜100 cells); 4, continuous film; 5, thick continuous film. Subjects with no debridement material as a result of their DFI healing were given a score of 0. The distribution of absolute scores at the EOT and TOC visits are descriptively summarized using counts and percentages by treatment group. Treatments were compared using the Cochran Mantel Haenszel mean score test statistic, and the p-value is presented. Additionally, a shift table showing individual subject changes from baseline to EOT and TOC visits is presented. Analyses are presented for the ME Population.

[2] = tested on: subjects with a moderate to severe DFI; assay: Phase 1b/2a DFI study (Example 7): microbiological response, colonization, reinfection, relapse; type: in vivo, human
Description: Efficacy: The following clinical and microbiological efficacy outcomes were assessed: • Proportion of subjects with a clinical cure of infection 2 weeks following the end of dosing, TOC with BisEDT or placebo. Subjects were classified into one of the following groups: cured (resolution of all clinical signs and symptoms of infection or sufficient improvement such that additional antimicrobial therapy was not required), failure (insufficient resolution of at least one of the initial signs and symptoms of infection, or the need for any additional or alternative antimicrobial therapy, or the need for surgical treatment of the infection), or indeterminate (assessment not possible for any reason). • Proportion of subjects with a clinical cure at EOT with BisEDT or placebo. • Proportion of subjects with a confirmed or presumed microbiological cure 2 weeks following the end of dosing, TOC. Subjects were classified into one of the following groups: confirmed eradication (all of the original pathogens were absent), presumed eradication (there was no available material for culture but the infection clinically responded to treatment), persistence (presence of a pathogen isolated at baseline), or indeterminate (inability to determine microbiological response). • Proportion of subjects with a confirmed or presumed microbiological cure at the EOT and EOS. At the EOS visit, additional classification groups included: colonization (isolation of a new organism that was not present on the initial culture but the wound was not clinically infected); reinfection (isolation of a new organism that was not present on the initial culture and the wound was clinically infected) or relapse (the same organism that was present on the initial culture was again isolated, after an intervening confirmed [sterile culture] or presumed [no material to culture] microbiological response and the wound was clinically infected). • Change from baseline in the Biofilm Score at EOT and TOC. • Proportion of subjects that underwent lower-extremity amputation involving the infected foot. • Proportion of subjects needing any infection-related surgery (ie, lower-extremity amputation, incision and drainage of a new abscess, or soft tissue or bone resection) after treatment had started. • Change from baseline in the 8-item DFI wound score at EOT, TOC, and EOS. • Percent reduction in ulcer size at EOS and each study visit.
Microbiological Response: The distribution of microbiological response outcome categories (confirmed eradication, presumed eradication, persistence, and indeterminate) are descriptively summarized by treatment group using counts and percentages at the TOC, EOT, and EOS visits. The eradication rate (confirmed+presumed vs the rest) was analyzed using the same methodology as clinical response. Analyses are presented for the ME Population.
Colonization, Reinfection, and Relapse: At the EOS visit, the number and percentage of subjects with a colonization, reinfection, or relapse are tabulated by treatment group for the ME Population.
Microbiologic assessment. Cultures were collected at baseline and as needed for the treatment of the subject. Tissue samples were shipped to a central laboratory where the presence of viable microorganisms was determined by standard microbiological culture methods and included speciation. […] The susceptibility of bacterial isolates to BisEDT was also determined, but was not reported to investigators.

[3] = tested on: subjects with a moderate to severe DFI; assay: Phase 1b/2a DFI study (Example 7): clinical response; type: in vivo, human; conditions: MITT Population, BisEDT dose groups vs placebo
Description: Methodology: This was a randomized, double-blind, placebo-controlled, multicenter study that was planned to be conducted in 2 parts. In Part 1, subjects were enrolled into escalating dose cohorts (BisEDT at concentrations of 150, 375, and 750 μg/mL resulting in doses of 3, 7.5, and 15 μg/cm^2) (N=16 per cohort) at a ratio of 3:1 (BisEDT to placebo).
In Part 1, subjects received either topical application of BisEDT or topical application of placebo, applied directly to the infected ulcer, 3 times per week, for a minimum of 2 weeks (ie, 6 doses) and up to a maximum of 3 weeks (ie, 9 doses). […] The determination to stop topical BisEDT therapy after a minimum of 2 weeks (ie, 6 doses) was at the discretion of the Principal Investigator and based on the resolution of clinical findings of infection.
Efficacy: The following clinical and microbiological efficacy outcomes were assessed: • Proportion of subjects with a clinical cure of infection 2 weeks following the end of dosing, TOC with BisEDT or placebo. […]
At the TOC, EOT, and EOS visits, the cure rate (cured vs not cured) was analyzed using an Exact Logistic Regression model with covariates for treatment dose group, the 8-item baseline wound score, and the interaction of treatment group and baseline wound score. […]

[4] = tested on: Patients with Moderate to Severe Diabetic Foot Infection; assay: Phase 1b/2a study of topical BisEDT: wound surface area by 3D digital photographs (Example 6); type: in vivo, human; conditions: end of treatment, test of cure and end of study
Description: Adjunctive local administration of BisEDT was tested for its efficacy in resolving both infection and critical colonization, thereby removing these barriers to wound repair and closure. This represents a fundamental, clinically meaningful benefit.
Topical BisEDT suspension and placebo were used in combination with SOC systemic antibiotics (such as levofloxacin) for a duration of 2-3 weeks. […] BisEDT, when used in conjunction with systemic antibiotics, for a duration of […] (3× per week) may be beneficial in resolving both infection and critical colonization, therefore enabling wound repair and closure, a fundamental, clinically meaningful benefit.

[5] = tested on: Staphylococcus aureus (S. aureus); assay: Staphylococcus aureus mouse model: efficacy of BisEDT on spleen and wound titer (Example 4); type: in vivo
Description: Establishment of Mouse Model: A luminescent strain of Staphylococcus aureus (S. aureus) was administered intravenously to adult, female, Swiss Webster mice and 48 hours was allowed for a biofilm to form. Mice were treated daily intravenously with 100 μL of serial dilutions of BisEDT. In this example, BisEDT was used as a suspension (w:v) (e.g. 150, 375, or 750 μg/mL) of drug particles in diluent, which is composed of 3% methylcellulose/0.5% polysorbate 80/10 mM sodium chloride/10 mM sodium phosphate, pH 7.4.
Imaging Studies: Mice were imaged using Silhouette to determine wound size and volume, and In Vivo Imaging Systems (IVIS) Lumina X5 to quantitate bioluminescence.
Terminal colony forming units (CFU) were determined by plating homogenized tissue from the wound bed and in the spleen. Mice were euthanized and wound tissue and spleens were harvested. Tissue samples were weighed and placed into microtubes containing sterile phosphate buffer and homogenized. The homogenate was then serially diluted and plated to determine CFU/g tissue.
An initial study evaluated the effect of BisEDT suspension on CFUs in the spleen and wound bed. The study occurred over 11 days with 9 days of treatment. The BisEDT suspension was administered to 30 (n=5 mice/group) mice at concentrations of 2500, 250, 25, 2.5, 0.25, 0.25, 0.025 μg/mL. A comparator control was vehicle, or diluent, and 50% DMSO in PBS.
A subsequent study evaluated the effect of higher concentrations of BisEDT suspension on CFUs in the spleen and wound bed. The study occurred over 12 days with 10 days of treatment. BisEDT suspension was administered to 20 (n=5 mice/group) at concentrations of 10, 5, 2.5, and 0.75 mg/mL. A negative control was mice that were untreated, and a positive control was mice that were treated with Prontosan. […] Complete inhibition was observed compared to the untreated control (FIG. 3). Further, treatment with 5 mg/mL BisEDT reduced CFUs by 1.5-2 logs, greater than the positive prontosan control.

[6] = Phase 1b/2a DFI study (Example 7): safety and tolerability; type: in vivo, human
Excerpt: The primary objective of Part 1 of this study and the planned primary objective of Part 2 of this study was to evaluate the safety and tolerability of topically administered BisEDT composition as adjunct to standard of care (including systemic antibiotic therapy) in subjects with a moderate to severe DFI. The secondary objectives of Part 1 of this study and the planned secondary objectives of Part 2 of this study were: To evaluate the effect of adjunctive BisEDT composition on resolution of infection; To evaluate the effect of adjunctive BisEDT composition on eradication of pathogens; To evaluate the effect of BisEDT composition on eradication of biofilms; To evaluate the effect of BisEDT composition on wound healing; To evaluate the effect of BisEDT composition for the prevention of lower extremity amputations; To evaluate the effect of BisEDT composition for the prevention of infection related surgery; To evaluate the effect of BisEDT composition on duration of systemic antibiotic use; To evaluate the effect of BisEDT composition on length of hospital stay; To evaluate the systemic absorption and pharmacokinetics of topically administered BisEDT composition.

[7] = Particle size of microparticulate BisEDT, Nanosizer/Zetasizer Nano-S (Example 1); type: physicochemical; conditions: resuspended in 2% Pluronic F-68, sonicated
Description: The dried particulate matter was characterized to assess the particle size properties. Briefly, microparticles were resuspended in 2% Pluronic® F-68 (BASF, Mt. Olive, NJ) and the suspension was sonicated for 10 minutes in a water bath sonicator at standard setting prior to analysis using a Nanosizer/Zetasizer Nano-S particle analyzer (model ZEN1600 (without zeta-potential measuring capacity), Malvern Instruments, Worcestershire, UK) according to the manufacturer's recommendations.

[8] = Phase 1b/2a DFI study (Example 7): pharmacokinetic evaluation, blood concentration of bismuth; type: in vivo, human; conditions: topical BisEDT 3, 7.5, 15 μg/cm^2; whole blood concentrations
Description: The primary objective of Part 1 of this study and the planned primary objective of Part 2 of this study was to evaluate the safety and tolerability of topically administered BisEDT composition as adjunct to standard of care (including systemic antibiotic therapy) in subjects with a moderate to severe DFI. […]
The mean bismuth concentration by day for the PK Concentration Population included: 8 subjects on Day 1 predose (only 2 subjects with detectable levels of 0.582 and 0.548 ng/mL, hypothesized to be from undisclosed use of bismuth containing medications or from dressings containing bismuth, such as Xeroform®, as blood was collected before treatment with BisEDT); 8 subjects on Day 3 predose (only 1 subject with a detectable level of 0.525 ng/mL); 8 subjects on Day 5 predose (only 1 subject with a detectable level of 0.701 ng/mL); and 8 subjects on Day 8 predose (only 1 subject with a detectable level of 0.513 ng/mL). […] Bismuth levels were not measured in samples that were erroneously processed to plasma by the 1 site that enrolled the majority of the subjects in the PK study, as bismuth levels are expected to be 15 to 20 times lower in plasma samples compared to whole blood samples and would be well below the lower limit of quantitation for the assay method; no PK parameters were calculated.

[9] = EOS visit, ME Population, BisEDT dose groups vs placebo
[10] = topical doses of 3, 7.5, and 15 μg/cm^2

C1C[S][Bi]([S]CC[S][Bi]2[S]CC[S]2)[S]1 [BisEDT, bismuth-1,2-ethanedithiol]
biofilm response, comparison of treatment groups ([1]; EOT visit): No difference in biofilm response at the EOT visit between treatment groups was observed
biofilm response, comparison of treatment groups ([1]; TOC visit): No difference in biofilm response at the TOC visit between treatment groups was observed
colonization, reinfection, and relapse, comparison of treatment groups [2, 9]: No difference between treatment groups was observed
microbiological response, comparison of treatment groups [2, 9]: No difference between treatment groups was observed
microbiological response, comparison of treatment groups ([2]; EOT visit, ME Population, BisEDT dose groups vs placebo): No difference between treatment groups was observed
microbiological response, comparison of treatment groups ([2]; TOC visit, ME Population, BisEDT dose groups vs placebo): No difference between treatment groups was observed
reduction of reinfection or relapse with BisEDT compared to placebo ([2]; all dose groups combined 12.5% vs placebo 33.3%, EOS visit): approximately one-third
clinical response, comparison of treatment groups ([3]; EOT visit): No difference between treatment groups was observed
clinical response, comparison of treatment groups ([3]; TOC visit): No difference between treatment groups was observed
proportion of subjects with >50% reduction in wound surface area from baseline, compared to placebo [4]: larger proportion
mice exhibiting no infection (spleen) ([5]; 2.5 mg/mL BisEDT (FIG. 4)): three
reduction of wound titer compared to diluent ([5]; 2500 μg/mL BisEDT suspension, mice, 9 days of treatment (FIG. 1)): approximately five
reduction of CFU compared to untreated control ([5]; 10 mg/mL BisEDT, mice, 10 days of treatment, complete inhibition (FIG. 3)): more than eight
TEAEs and SAEs related to study drug [6, 10]: None of the TEAEs and SAEs occurring in the study were considered related to study drug
safety signals [6, 10]: No safety signals were identified
safety and tolerability ([6]; topical doses of 3, 7.5, and 15 μg/cm^2, 3 times per week, 2-3 weeks): safe and well tolerated
peak VMD [7]: about 1.3 microns
systemic exposure [8]: very little systemic exposure; also recorded: does not appear to exhibit any relevant systemic exposure; also recorded: limited systemic exposure
